Experimental data published in ChEMBL document CHEMBL1201862, “PubChem BioAssay data set” (2004).
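The compound was tested at five concentrations on cells cultured in 96-well plates, with a 48-hour exposure period. GI50 is the concentration that inhibits growth by half.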 Calls of active or inactive are those of the source. Cut-off read from the data, not from the text of the source: active = GI50 up to about 1.1 µM and inactive = higher.

Experiments:
Assay in all cases: NCI tumour cell line growth inhibition, 48 h
MDA-MB-435 = tested on: MDA-MB-435
NCI-H460 = tested on: NCI-H460
HT-29 = tested on: HT-29
CAKI-1 = tested on: CAKI-1
COLO 205 = tested on: COLO 205
NCI-H23 = tested on: NCI-H23
HOP-92 = tested on: HOP-92
UO-31 = tested on: UO-31
HCT-116 = tested on: HCT-116
RXF 393 = tested on: RXF 393
HCT-15 = tested on: HCT-15
HL-60 = tested on: HL-60
K562 = tested on: K562
NCI-H522 = tested on: NCI-H522
HOP-62 = tested on: HOP-62
SW-620 = tested on: SW-620
SF-295 = tested on: SF-295
SK-MEL-2 = tested on: SK-MEL-2
KM12 = tested on: KM12
M14 = tested on: M14
TK-10 = tested on: TK-10
UACC-62 = tested on: UACC-62
ACHN = tested on: ACHN
SK-OV-3 = tested on: SK-OV-3
LOX IMVI = tested on: LOX IMVI
EKVX = tested on: EKVX
SNB-19 = tested on: SNB-19
NCI/ADR-RES = tested on: NCI/ADR-RES
Hs-578T = tested on: Hs-578T
IGROV-1 = tested on: IGROV-1
Malme-3M = tested on: Malme-3M
BT-549 = tested on: BT-549
NCI-H226 = tested on: NCI-H226
MCF7 = tested on: MCF7
786-0 = tested on: 786-0
MOLT-4 = tested on: MOLT-4
MDA-N = tested on: MDA-N
SK-MEL-5 = tested on: SK-MEL-5
OVCAR-4 = tested on: OVCAR-4
OVCAR-3 = tested on: OVCAR-3
PC-3 = tested on: PC-3
RPMI-8226 = tested on: RPMI-8226
OVCAR-8 = tested on: OVCAR-8
SNB-75 = tested on: SNB-75
MDA-MB-231 = tested on: MDA-MB-231
T47D = tested on: T47D
SR = tested on: SR
A549 = tested on: A549
DU-145 = tested on: DU-145
OVCAR-5 = tested on: OVCAR-5
CCRF-CEM = tested on: CCRF-CEM
UACC-257 = tested on: UACC-257
U-251 = tested on: U-251
SF-539 = tested on: SF-539
SN12C = tested on: SN12C
SF-268 = tested on: SF-268
HCC 2998 = tested on: HCC 2998
A498 = tested on: A498
SK-MEL-28 = tested on: SK-MEL-28

With `NC(=S)NC/C=C/Cl` the GI50 (MDA-MB-435) was > 100 µM (inactive), the GI50 (NCI-H460) was > 100 µM (inactive) and the GI50 (HT-29) was > 100 µM (inactive). For the same molecule, the GI50 (CAKI-1) was > 100 µM (inactive), the GI50 (COLO 205) was > 100 µM (inactive) and the GI50 (NCI-H23) was > 100 µM (inactive). The GI50 (HOP-92) was > 100 µM (inactive), the GI50 (UO-31) was > 100 µM (inactive) and the GI50 (HCT-116) was > 100 µM (inactive). The GI50 (RXF 393) was > 100 µM (inactive), the GI50 (HCT-15) was > 100 µM and the GI50 (HL-60) was > 100 µM (inactive). For the same molecule, the GI50 (K562) was > 100 µM (inactive), the GI50 (NCI-H522) was 86.5 µM (inactive) and the GI50 (HOP-62) was > 100 µM (inactive). The GI50 (SW-620) was > 100 µM (inactive), the GI50 (SF-295) was > 100 µM (inactive) and the GI50 (SK-MEL-2) was > 100 µM (inactive). The GI50 (KM12) was > 100 µM (inactive), the GI50 (M14) was > 100 µM (inactive) and the GI50 (TK-10) was > 100 µM (inactive). For the same molecule, the GI50 (UACC-62) was > 100 µM (inactive), the GI50 (ACHN) was > 100 µM (inactive) and the GI50 (SK-OV-3) was > 100 µM (inactive). The GI50 (LOX IMVI) was > 100 µM (inactive), the GI50 (EKVX) was > 100 µM (inactive) and the GI50 (SNB-19) was > 100 µM (inactive). The GI50 (NCI/ADR-RES) was > 100 µM (inactive), the GI50 (Hs-578T) was > 100 µM (inactive) and the GI50 (IGROV-1) was > 100 µM (inactive). The GI50 (Malme-3M) was > 100 µM (inactive), the GI50 (BT-549) was > 100 µM (inactive) and the GI50 (NCI-H226) was > 100 µM (inactive). The GI50 (MCF7) was > 100 µM (inactive), the GI50 (786-0) was > 100 µM (inactive) and the GI50 (MOLT-4) was > 100 µM (inactive). The GI50 (MDA-N) was > 100 µM (inactive), the GI50 (SK-MEL-5) was > 100 µM (inactive) and the GI50 (OVCAR-4) was > 100 µM (inactive). For the same molecule, the GI50 (OVCAR-3) was > 100 µM (inactive), the GI50 (PC-3) was > 100 µM (inactive) and the GI50 (RPMI-8226) was > 100 µM (inactive). For the same molecule, the GI50 (OVCAR-8) was > 100 µM (inactive), the GI50 (SNB-75) was > 100 µM (inactive) and the GI50 (MDA-MB-231) was > 100 µM (inactive). The GI50 (T47D) was > 100 µM (inactive), the GI50 (SR) was > 100 µM (inactive) and the GI50 (A549) was > 100 µM (inactive). For the same molecule, the GI50 (DU-145) was > 100 µM (inactive), the GI50 (OVCAR-5) was > 100 µM (inactive) and the GI50 (CCRF-CEM) was > 100 µM (inactive). The GI50 (UACC-257) was > 100 µM (inactive).

`Cc1cccc(N(CCC#N)S(=O)(=O)c2ccccc2)c1` was tested, and the GI50 (U-251) was > 100 µM (inactive), the GI50 (MDA-MB-435) was > 100 µM (inactive) and the GI50 (SF-539) was > 100 µM (inactive). For the same molecule, the GI50 (NCI-H460) was > 100 µM (inactive), the GI50 (HT-29) was > 100 µM (inactive) and the GI50 (CAKI-1) was > 100 µM (inactive). The GI50 (COLO 205) was > 100 µM (inactive), the GI50 (NCI-H23) was > 100 µM (inactive) and the GI50 (HOP-92) was > 100 µM (inactive). The GI50 (UO-31) was 97.7 µM (inactive), the GI50 (HCT-116) was > 100 µM (inactive) and the GI50 (HCT-15) was > 10 µM. The GI50 (SN12C) was > 100 µM (inactive), the GI50 (HL-60) was > 100 µM (inactive) and the GI50 (K562) was > 100 µM (inactive). For the same molecule, the GI50 (NCI-H522) was > 100 µM (inactive), the GI50 (HOP-62) was > 100 µM (inactive) and the GI50 (SW-620) was > 100 µM (inactive). For the same molecule, the GI50 (SK-MEL-2) was > 100 µM (inactive), the GI50 (KM12) was > 100 µM (inactive) and the GI50 (M14) was > 100 µM (inactive). For the same molecule, the GI50 (SF-268) was > 100 µM (inactive), the GI50 (TK-10) was > 100 µM (inactive) and the GI50 (UACC-62) was > 100 µM (inactive). The GI50 (ACHN) was > 100 µM (inactive), the GI50 (SK-OV-3) was > 100 µM (inactive) and the GI50 (LOX IMVI) was > 100 µM (inactive). For the same molecule, the GI50 (EKVX) was > 100 µM (inactive), the GI50 (SNB-19) was > 100 µM (inactive) and the GI50 (NCI/ADR-RES) was > 100 µM (inactive). For the same molecule, the GI50 (Hs-578T) was > 100 µM (inactive), the GI50 (IGROV-1) was > 100 µM (inactive) and the GI50 (Malme-3M) was > 100 µM (inactive). The GI50 (BT-549) was > 100 µM (inactive), the GI50 (NCI-H226) was > 100 µM (inactive) and the GI50 (MCF7) was > 100 µM (inactive). The GI50 (786-0) was > 100 µM (inactive), the GI50 (HCC 2998) was > 100 µM (inactive) and the GI50 (A498) was > 100 µM (inactive). The GI50 (MOLT-4) was > 100 µM (inactive), the GI50 (MDA-N) was > 100 µM (inactive) and the GI50 (SK-MEL-5) was 69 µM (inactive). For the same molecule, the GI50 (OVCAR-4) was > 100 µM (inactive), the GI50 (OVCAR-3) was > 100 µM (inactive) and the GI50 (PC-3) was > 100 µM (inactive). The GI50 (SK-MEL-28) was > 100 µM (inactive), the GI50 (RPMI-8226) was > 100 µM (inactive) and the GI50 (OVCAR-8) was > 100 µM (inactive). The GI50 (SNB-75) was > 100 µM (inactive), the GI50 (MDA-MB-231) was > 100 µM (inactive) and the GI50 (T47D) was > 100 µM (inactive). The GI50 (SR) was > 100 µM (inactive), the GI50 (A549) was > 100 µM (inactive) and the GI50 (DU-145) was > 100 µM (inactive). For the same molecule, the GI50 (OVCAR-5) was > 100 µM (inactive), the GI50 (CCRF-CEM) was > 100 µM (inactive) and the GI50 (UACC-257) was > 100 µM (inactive).
